Assay results from patent publication US5631263A, “Use of delta opioid receptor antagonists to treat immunoregulatory disorders” (Minneapolis Medical Research Foundation, priority 1995, dated 1997).
Entries after “also recorded” stand apart in the source; their conditions may differ.

Tests used:
[1] = molecular target: T1, δ1 opioid receptor (Mus musculus, UniProt P32300); assay: antagonism of DPDPE in smooth muscle; type: cell-based; details: Table VIII, read-out: Smooth Muscle Ke, DPDPE (δ1)
T1 construct: Both vasa deferentia were dissected out of mice; from tissue; host or cells: smooth muscle preparation, inferred mouse vas deferens
T1 sequence (P32300 whole entry): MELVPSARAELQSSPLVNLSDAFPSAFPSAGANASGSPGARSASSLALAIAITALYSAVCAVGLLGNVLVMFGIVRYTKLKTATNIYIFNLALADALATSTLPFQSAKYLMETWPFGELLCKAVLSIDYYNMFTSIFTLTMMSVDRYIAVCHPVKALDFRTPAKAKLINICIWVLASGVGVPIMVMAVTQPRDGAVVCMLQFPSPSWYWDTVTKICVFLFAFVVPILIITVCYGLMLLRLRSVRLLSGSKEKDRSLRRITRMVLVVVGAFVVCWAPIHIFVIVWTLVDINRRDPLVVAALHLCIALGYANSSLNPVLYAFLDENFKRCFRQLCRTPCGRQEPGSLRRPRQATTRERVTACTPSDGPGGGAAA
From the text: (§1) Concentration-response curves were obtained in the absence (control) and the presence of the antagonist are expressed as IC50 values. […] Therefore, a high IC50 ratio represents a correspondingly high degree of antagonism at a particular receptor. […] Therefore, a low Ke represents a correspondingly high degree of binding at a particular receptor.

[2] = molecular target: T2, κ opioid receptor (Mus musculus, UniProt P33534); assay: tail flick assay, antagonism of antinociception by U50488H; type: in vivo, mice; details: BNTX 6.25 pmol/i.c.v./mouse
T2 construct: evaluated in mice using the tail flick assay; from tissue; host or cells: living mice (i.c.v. injection)
T2 sequence (P33534 whole entry): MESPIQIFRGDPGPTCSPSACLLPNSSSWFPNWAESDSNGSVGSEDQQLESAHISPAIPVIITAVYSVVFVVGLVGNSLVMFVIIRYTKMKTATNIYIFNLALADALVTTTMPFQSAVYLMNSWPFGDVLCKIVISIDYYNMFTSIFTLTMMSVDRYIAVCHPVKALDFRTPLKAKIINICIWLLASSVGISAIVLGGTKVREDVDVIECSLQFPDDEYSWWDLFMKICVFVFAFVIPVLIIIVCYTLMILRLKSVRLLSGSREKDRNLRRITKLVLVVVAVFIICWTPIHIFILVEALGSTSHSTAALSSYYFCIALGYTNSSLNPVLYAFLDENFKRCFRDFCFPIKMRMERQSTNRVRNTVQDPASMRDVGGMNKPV
Experimental: (§2) The antagonist effect of BNTX on antinociceptin was evaluated in mice using the tail flick assay, in accord with the procedure of F. C. Tulunay et al., J. Pharmacol. Exp. Ther., 243, 91 (1987). At least three groups of ten mice were used to generate dose-response curves. A mouse was regarded as positive for antinociception if the latency to flick its tail was more than the control latency plus 3 S.D. of the mean reaction time of the group. The reaction times were determined at the peak time for antinociception after administration of various agonists. Intracerebroventricular (i.c.v.) injections were made in a volume of 5 μl by the method of T. J. Haley et al., Br. J. Pharmacol., 12, 12 (1957).
(§3) On Table VIII, the potencies are expressed as ED50 ratios, which represent the ED50 of the standard agonist administered subcutaneously in the presence of BNTX (6.25 pmol/i.c.v./mouse), divided by the ED50 of the standard agonist.

[3] = molecular target: T3, δ opioid receptor (Mus musculus, UniProt P32300); assay: antagonism of DADLE on MVD preparations (Example 7); type: cell-based
T3 construct: Both vasa deferentia were dissected out of mice; from tissue; host or cells: mouse vas deferens (isolated, electrically stimulated)
T3 sequence (P32300 whole entry): as the sequence (P32300 whole entry) above
Experimental: 2. Mouse Vas Deferens (MVD). […] The organ bath was maintained at 37° C.
as §1

[4] = molecular target: T4, δ2 opioid receptor (Mus musculus, UniProt P32300); assay: tail flick assay, antagonism of antinociception by DSLET; type: in vivo, mice; parameters: evaluated in mice using the tail flick assay; from tissue; host or cells: living mice (i.c.v. injection); details: BNTX 6.25 pmol/i.c.v./mouse
T4 sequence (P32300 whole entry): as above
Experimental: as §2, §3

[5] = molecular target: μ receptors (Cavia porcellus, UniProt A0ACM8Q262); assay: binding to guinea pig brain membranes, [3H]DAMGO
Chain of μ receptors (A0ACM8Q262 1-400): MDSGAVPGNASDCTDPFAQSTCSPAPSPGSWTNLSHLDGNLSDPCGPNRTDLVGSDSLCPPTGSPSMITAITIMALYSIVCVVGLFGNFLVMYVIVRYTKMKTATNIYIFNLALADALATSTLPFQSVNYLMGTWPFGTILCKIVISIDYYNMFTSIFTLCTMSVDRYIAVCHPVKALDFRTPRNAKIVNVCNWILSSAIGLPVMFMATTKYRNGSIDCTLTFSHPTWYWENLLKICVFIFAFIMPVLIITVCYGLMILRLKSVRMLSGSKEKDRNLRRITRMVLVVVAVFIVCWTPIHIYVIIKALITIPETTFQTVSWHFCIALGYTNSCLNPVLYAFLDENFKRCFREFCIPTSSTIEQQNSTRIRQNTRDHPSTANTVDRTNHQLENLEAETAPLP

[6] = molecular target: T5, δ1 receptors (Cavia porcellus, UniProt A0A286XTF2); assay: binding to guinea pig brain membranes, [3H]DPDPE
T5 construct: guinea pig brain membranes; from tissue; host or cells: guinea pig brain membranes
T5 sequence (A0A286XTF2 1-366): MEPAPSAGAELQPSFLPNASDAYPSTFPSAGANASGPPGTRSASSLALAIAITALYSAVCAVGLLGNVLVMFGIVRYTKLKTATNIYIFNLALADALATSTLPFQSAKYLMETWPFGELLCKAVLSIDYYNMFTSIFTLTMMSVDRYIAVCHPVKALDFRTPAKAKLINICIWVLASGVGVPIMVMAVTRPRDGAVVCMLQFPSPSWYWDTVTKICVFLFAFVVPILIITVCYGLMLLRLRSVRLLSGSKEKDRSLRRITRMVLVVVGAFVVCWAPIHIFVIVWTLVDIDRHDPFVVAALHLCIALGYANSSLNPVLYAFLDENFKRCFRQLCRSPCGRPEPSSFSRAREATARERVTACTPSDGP
Experimental: (§4) Therefore, a better assessment of the δ subtype selectivity can be obtained from binding of brain membranes and from antagonism studies in mice. The binding of BNTX to guinea pig brain membranes was determined using the general method of L. L. Werling et al., J. Pharmacol. Exp. Ther., 233, 722 (1985), as modified by A. E. Takemori et al., J. Pharmacol. Exp. Ther., 246, 255 (1988). The radio-ligands employed were [^3 H]DPDPE ([D-Pen^2, D-Pen^5 ] enkephalin) for δ1receptors, [^3 H]DSLET([D-Ser^2 -Leus]enkephalin-Thr^6) for δ^2 receptors, [3H]DAMGO for μ receptors and U69593(trans-(±)-3,4-dichloro-N-methyl-N-[2-(lpyrididinyl)cyclohexyl]benzeneacetamide) for κ receptors.

[7] = molecular target: T6, μ opioid receptor (Mus musculus, UniProt P42866); assay: tail flick assay, antagonism of antinociception by μ agonist; type: in vivo, mice; details: BNTX 6.25 pmol/i.c.v./mouse
T6 construct: evaluated in mice using the tail flick assay; from tissue; host or cells: living mice (i.c.v. injection)
T6 sequence (P42866 whole entry): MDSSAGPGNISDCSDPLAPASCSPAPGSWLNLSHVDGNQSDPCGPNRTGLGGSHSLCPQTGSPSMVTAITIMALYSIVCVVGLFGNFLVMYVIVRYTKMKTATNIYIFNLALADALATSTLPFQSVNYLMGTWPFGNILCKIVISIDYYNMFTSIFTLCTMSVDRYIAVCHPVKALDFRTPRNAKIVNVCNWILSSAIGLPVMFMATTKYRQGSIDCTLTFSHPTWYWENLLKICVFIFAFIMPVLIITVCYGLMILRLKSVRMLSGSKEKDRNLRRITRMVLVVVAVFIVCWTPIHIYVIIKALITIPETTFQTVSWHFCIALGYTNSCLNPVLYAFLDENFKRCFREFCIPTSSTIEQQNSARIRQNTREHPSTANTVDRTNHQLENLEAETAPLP
Experimental: as §2, §3

[8] = molecular target: T7, κ opioid receptor (Cavia porcellus, UniProt P41144); assay: antagonism of ethylketazocine in the GPI (Example 7); type: cell-based, guinea pig; details: ethylketazocine as agonist, read-out: Ke, κ (Table VII)
T7 construct: a strip of longitudinal muscle with the myenteric plexus attached was prepared; from tissue; host or cells: guinea pig ileum longitudinal muscle with myenteric plexus
T7 sequence (P41144 whole entry): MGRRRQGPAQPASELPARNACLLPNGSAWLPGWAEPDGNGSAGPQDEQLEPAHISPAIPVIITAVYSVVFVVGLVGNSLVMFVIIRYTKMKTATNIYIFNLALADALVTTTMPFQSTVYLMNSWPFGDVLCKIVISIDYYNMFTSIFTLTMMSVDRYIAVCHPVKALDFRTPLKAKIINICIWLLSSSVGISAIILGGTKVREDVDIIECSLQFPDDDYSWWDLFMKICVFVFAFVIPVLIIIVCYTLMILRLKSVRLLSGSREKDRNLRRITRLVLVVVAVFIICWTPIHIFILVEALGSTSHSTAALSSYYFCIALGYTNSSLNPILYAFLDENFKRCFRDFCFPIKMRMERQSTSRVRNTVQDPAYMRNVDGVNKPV
Experimental: (§5) 1. Guinea Pig Ileal Longitudinal Muscle (GPI). Ilea from guinea pigs were taken approximately 10 cm from the ileocaecal junction, and a strip of longitudinal muscle with the myenteric plexus attached was prepared by method of Rang et al., Brit. J. Pharmacol., 22, 356 (1964), the disclosure of which is incorporated by reference herein. A 1 cm portion of this strip was then mounted between two platinum electrodes placed in a 10 ml organ bath and connected to an isometric transducer. Contractions were recorded on a polygraph. […] The organ bath was maintained at 36°-37° C. The longitudinal muscle strip was allowed to equilibrate with continuous stimulation for a minimum of 90 min.

[9] = molecular target: T8, δ2 receptors (Cavia porcellus, UniProt A0A286XTF2); assay: binding to guinea pig brain membranes, [3H]DSLET
T8 construct: guinea pig brain membranes; from tissue; host or cells: guinea pig brain membranes
T8 sequence (A0A286XTF2 1-366): as the sequence (A0A286XTF2 1-366) above
Experimental: as §4

[10] = molecular target: μ opioid receptor (Cavia porcellus, UniProt A0ACM8Q262); assay: antagonism of morphine in the GPI (Example 7); type: cell-based, guinea pig; details: morphine as agonist, read-out: Ke, μ (Table VII)
Chain of μ opioid receptor (Cavia porcellus, UniProt A0ACM8Q262) (A0ACM8Q262 1-400): as the sequence (A0ACM8Q262 1-400) above
Experimental: as §5

[11] = molecular target: T4, δ2 opioid receptor; assay: antagonism of DSLET in smooth muscle; type: cell-based; parameters: Both vasa deferentia were dissected out of mice; from tissue; host or cells: smooth muscle preparation, inferred mouse vas deferens; details: Table VIII, read-out: Smooth Muscle Ke, DSLET (δ2)
From the text: as §1

[12] = both in vivo and in vitro; cited from earlier work
[13] = tested on: allogeneic murine spleen cells; details: cited from earlier work
[14] = tested on: renal allograft; details: in words; cited from earlier work
[15] = tested on: immune function; details: both in vivo and in vitro; cited from earlier work
[16] = tested on: mixed lymphocyte responses; details: cited from earlier work
[17] = tested on: mu opioid receptors; details: 20 mg/kg s.c.; in words; cited from earlier work
[18] = tested on: splenic mononuclear cells (MNC); assay: depressed AMLR of splenic MNC from rats infected with rat coronavirus; type: cell-based; details: FIG. 2
Experimental: Rats were anesthetized with a mixture of 8 mg/ml keta/nine and 2 mg/ml acepromazine (dose=0.1 ml/100 g body weight) and the spleens were removed aseptically. The animals were exsanguinated while under anesthesia. Splenic MNC were released from the surrounding connective tissue by dispersing through a wire mesh. The red blood cells were removed by density gradient centrifugation on ficol-hypaque (Lymphocyte Separation Medium, LSM, Organon Tecknika, Durham, N.C.). The purified MNC were washed in Hanks Balanced Salt Solution containing 1% gelatin and 2 mM EDTA and resuspended in RPMI-1640 medium containing 5% Fetal Bovine Serum (FBS), 100 U/ml penicillin, 100 ug/ml streptomycin and 5×10^-5 M 2-mercaptoethanol. In some experiments, TCM™, a defined medium supplement (CELOX, Minneapolis, Minn.), was used instead of FBS.
Purified MNC were placed in 96-well round bottom plates at 2×10^5cells/well in a total volume of 0.2 ml and incubated for 5 days at 37° C. […] The cells were then harvested onto glass fiber filter paper and counted in a Beckman (Fullerton, Calif.) scintillation counter. The results are calculated as the mean counts per minute of triplicate wells, and are expressed as percent of control (cpm suppressed AMLR/cpm control AMLR). […]

[19] = tested on: delta opioid receptors; details: 20 mg/kg s.c.; in words; cited from earlier work
[20] = molecular target: mu opioid receptors; details: read-out: Ke, M (morphine); GPI, agonist morphine; antagonist 100 or 200 nM, 15 min; cited from earlier work
[21] = tested on: kappa opioid receptors; details: 20 mg/kg s.c.; in words; cited from earlier work
[22] = tested on: splenic MNC (T and non-T cells); assay: depressed AMLR of splenic cells from mice infected with mCMV; type: cell-based; details: for reversal of AMLR suppressed by CMV 10^-4: AMLR suppressed 42%; for reversal of AMLR suppressed by CMV 10^-2: AMLR suppressed 20%
Experimental: Mice were injected i.p. with serial 10-fold dilutions of a stock mCMV solution. Dilutions of stock virus ranged from 10^-2 to 10^-6. Mice were sacrificed after 10 days of infection. Control mice were injected with saline.
Splenic MNC from CMV-infected and uninfected mice were purified by density gradient centrifugation on LSM, as described above for the rat splenic MNC. T and non-T cell fractions were separated by nylon wool columns as disclosed by M. H. Julius et al., Eur. J. Immunol., 3, 645 (1973). The T-enriched cells were used as responder cells. The non-T cells were treated with mitomycin-C to stop their proliferation, as described by K. M. Linner et al., Endocrinol., 128, 717 (1991) and used as stimulator cells. Autologous cell cultures were then set up, with equal numbers (2×10^5) of responder T and stimulator non-T cells being cultured in the 96-well microtiter plates. Cells were cultured for 5 days. To some wells, NTI at 10^-10, 10^-12 or 10^-14 M, concentrations determined to be optimal from the rat AMLR studies, was added for the duration of the culture period. ^3 H-thymidine was added to each well for the last 18 hr of incubation, and the cultures were harvested and counted as described above.

[23] = tested on: enkephalin-binding receptor on cells of the immune system; details: in words; cited from earlier work

For `O=C1C(=Cc2ccccc2)C[C@@]2(O)[C@H]3Cc4ccc(O)c5c4[C@@]2(CCN3CC2CC2)[C@H]1O5` [BNTX, 7-Benzylidene-7-dehydronaltrexone], the Kb [1] was 5.2 nM, the “ED50 Ratio ("Potency Ratio"), U50488H” value [2] was 1.2 and the “shift of the U50488H dose-response curve” value ([2]; in words) was “not shifted significantly”. For the same compound, the Kb [3] was 2.9 nM, the “Ke Ratio κ/δ” value ([3]; GPI ethylketazocine / MVD DADLE) was 35 and the “Ke Ratio μ/δ” value ([3]; GPI morphine / MVD DADLE) was 2.9. For the same compound, the “Ke ratios compared with NTI and naltrexone, in words” value ([3]; Table VII data) was “less than those of the standard δ agonist NTI, but greater than those of naltrexone”, the “receptor selectivity in words” value ([3]; Table VII data) was “δ-selective antagonist” and the “ED50 Ratio ("Potency Ratio"), DSLET” value [4] was 0.91. The “shift of the DSLET dose-response curve” value ([4]; in words) was “not shifted significantly”, the Ki [5] was 13.3 nM and the “δ1 selectivity in words” value ([6]; binding) was “highly selective for δ1 receptor sites; also recorded: first δ1 opioid receptor subset-selective antagonist”. The Ki ([6]; guinea pig brain membranes) was 0.1 nM, the “binding ratio, Ki(δ2)/Ki(δ1)” value ([6]; guinea pig brain membranes) was “about 100” and the “ED50 Ratio ("Potency Ratio"), DAMGO row” value [7] was 0.88. The “shift of the morphine dose-response curve” value ([7]; in words) was “not shifted significantly”, the Kb [8] was 100 nM and the Ki [9] was 10.8 nM. It also gave a Kb [10] of 8.3 nM and a Kb [11] of 2.1 nM.
For `Oc1ccc2c3c1O[C@H]1c4[nH]c5ccccc5c4C[C@@]4(O)[C@@H](C2)N(CC2CC2)CC[C@]314` [Compound 1, 17-(cyclopropylmethyl)-6,7-dehydro-3,14β-dihydroxy-4,5α-epoxy-6,7-2',3'-indolmorphinan], the toxicity [12] is listed as “non-toxic”, the MLR suppression [13] is listed as “strongly suppresses the MLR” and the allograft survival [14] is listed as “prolong allograft survival”. For the same compound, the immunosuppression [15] was “immunosuppressive”, the “effectiveness compared with cyclosporine A (CsA)” value ([16]; in both in vitro responses) was “less effective than cyclosporine A (CsA)” and the “allogeneic and xenogeneic mixed lymphocyte responses” value ([16]; in vitro, in words) was “suppress in vitro allogeneic and xenogeneic mixed lymphocyte responses”. The “antagonism of the effect of morphine” value [17] was “without significantly antagonizing”, the “reversal of depressed AMLR” value [18] was “reversed” and the “block of writhing inhibition due to DSLET” value [19] was “effectively blocked”. The Kb [20] was 29.4 nM, the Kb [10] was […] and the “antagonism of the effect of U50488H” value [21] was “without significantly antagonizing”. For the same compound, the “reversal of the suppressed AMLR caused by CMV infection” value ([22]; FIGS. 4A and 4B) was “can reverse the suppressed AMLR”, the “reversal of AMLR suppressed by CMV 10^-4” value ([22]; NTI 10^-10 M) was “partially” and the “reversal of AMLR suppressed by CMV 10^-2” value ([22]; NTI 10^-12 and 10^-10 M) was “completely reversed”. For the same compound, the “reversal of AMLR suppressed by CMV 10^-4” value ([22]; NTI 10^-14 M-10^-12 M) was “reversed completely” and the “reversal of AMLR suppressed by CMV 10^-2” value ([22]; NTI 10^-14 M) was “not by NTI at 10^-14 M”.
For `C=CCN1CC[C@]23c4c5ccc(O)c4O[C@H]2C(=O)CC[C@@]3(O)[C@H]1C5` [naloxone], the “block of many of the effects of enkephalins on immune function” value [23] is given as “blocked”.
